ChEMBL document CHEMBL4840348, “Total Syntheses and Anti-inflammatory Activities of Syringin and Its Natural Analogues” (J Nat Prod, 2021)

Assays:
RAW264.7 [1] = test: Cytotoxicity against mouse RAW264.7 cells assessed as reduction in cell viability at 100 uM measured after 24 hrs by MTT assay; type: cell-based; conditions: raw264.7, 24 h
RAW264.7 [2] = test: Antiinflammatory activity in mouse RAW264.7 cells assessed as inhibition of LPS-induced NO production pretreated with compound for 2 hrs followed by LPS stimulation measured after 18 hrs by gGriess reagent based assay; type: functional, cell-based

| IC50 (RAW264.7 [2]) | SMILES | Activity (RAW264.7 [1]) |
| --- | --- | --- |
| 15.4 µM | COc1cc([C@@H](O)[C@@H](O)CO)cc(OC)c1O[C@@H]1O[C@H](CO)[C@@H](O)[C@H](O)[C@H]1O | Non-Toxic |
| 14.6 µM | COC/C=C/c1cc(OC)c(O[C@@H]2O[C@H](CO)[C@@H](O)[C@H](O)[C@H]2O)c(OC)c1 | Non-Toxic |
| 18.7 µM | COc1cc(/C=C/C(=O)O)cc(OC)c1O[C@@H]1O[C@H](CO)[C@@H](O)[C@H](O)[C@H]1O | Non-Toxic |
| 25.1 µM | COc1cc([C@H](O)[C@H](O)CO)cc(OC)c1O[C@@H]1O[C@H](CO)[C@@H](O)[C@H](O)[C@H]1O | Non-Toxic |
| > 100 µM | COc1cc(/C=C/COC/C=C/c2cc(OC)c(O[C@@H]3O[C@H](CO)[C@@H](O)[C@H](O)[C@H]3O)c(OC)c2)cc(OC)c1O[C@@H]1O[C@H](CO)[C@@H](O)[C@H](O)[C@H]1O | Non-Toxic |
| 20.4 µM | COC(=O)/C=C/c1cc(OC)c(O[C@@H]2O[C@H](CO)[C@@H](O)[C@H](O)[C@H]2O)c(OC)c1 | Non-Toxic |
| > 100 µM | CCOC/C=C/c1cc(OC)c(O[C@@H]2O[C@H](CO)[C@@H](O)[C@H](O)[C@H]2O)c(OC)c1 | Non-Toxic |
| 16.6 µM | COc1cc(/C=C/CO[C@@H]2O[C@H](CO)[C@@H](O)[C@H](O)[C@H]2O)cc(OC)c1O[C@@H]1O[C@H](CO)[C@@H](O)[C@H](O)[C@H]1O | Non-Toxic |
| > 100 µM | CCCCOC/C=C/c1cc(OC)c(O[C@@H]2O[C@H](CO)[C@@H](O)[C@H](O)[C@H]2O)c(OC)c1 | Non-Toxic |
| 2.3 µM | Cc1ccc(-c2cc(C(F)(F)F)nn2-c2ccc(S(N)(=O)=O)cc2)cc1 [CELECOXIB] | – |
| > 100 µM | COc1cc(CCCO)cc(OC)c1O[C@@H]1O[C@H](CO)[C@@H](O)[C@H](O)[C@H]1O [DIHYDROSYRINGIN] | Non-Toxic |

| SMILES | IC50 (RAW264.7 [2]) | Activity (RAW264.7 [1]) |
| --- | --- | --- |
| COc1cc(/C=C/C=O)cc(OC)c1O[C@@H]1O[C@H](CO)[C@@H](O)[C@H](O)[C@H]1O [SINAPALDEHYDE GLUCOSIDE] | > 100 µM | Non-Toxic |
| COc1cc(/C=C/CO)cc(OC)c1O[C@@H]1O[C@H](CO)[C@@H](O)[C@H](O)[C@H]1O [SYRINGIN] | 17.2 µM | Non-Toxic |
